The results in this text go back to ChEMBL document CHEMBL5715954, “Silencing c-Myc translation as a therapeutic strategy through targeting PI3Kδ and CK1ε in hematological malignancies” (Blood, 2017).

Common to all, as to parameters: scale not given: the % may be the effect or the level left
The target of test [1] is Tyrosine-protein kinase FRK (Homo sapiens) (UniProt P42685). The test is described as follows: Inhibition of human FRK assessed as enzyme activity at 1 uM using poly[Glu:Tyr] (4:1) as substrate preincubated for 20 mins followed by [gamma-33P]-ATP addition and measured after 120 mins by radiometric Hot-SpotSM Kinase assay relative to control.
Chain of Tyrosine-protein kinase FRK (Homo sapiens) (P42685 whole entry): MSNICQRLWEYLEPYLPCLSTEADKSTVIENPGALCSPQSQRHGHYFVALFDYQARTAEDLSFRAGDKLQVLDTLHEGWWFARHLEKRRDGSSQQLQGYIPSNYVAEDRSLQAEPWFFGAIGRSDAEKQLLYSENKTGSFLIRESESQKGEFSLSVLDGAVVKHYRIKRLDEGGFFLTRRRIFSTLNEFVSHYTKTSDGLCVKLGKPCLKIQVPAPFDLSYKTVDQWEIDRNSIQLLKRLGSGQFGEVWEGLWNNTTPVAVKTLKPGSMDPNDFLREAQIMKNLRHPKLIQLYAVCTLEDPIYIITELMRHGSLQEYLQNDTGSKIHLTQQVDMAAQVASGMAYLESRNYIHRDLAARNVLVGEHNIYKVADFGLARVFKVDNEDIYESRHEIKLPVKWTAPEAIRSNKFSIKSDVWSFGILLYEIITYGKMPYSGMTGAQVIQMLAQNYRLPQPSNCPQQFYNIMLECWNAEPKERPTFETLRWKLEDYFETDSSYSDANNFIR
The target of test [2] is Serine/threonine-protein kinase SBK1 (Homo sapiens) (UniProt Q52WX2). Description: Inhibition of human SBK1 assessed as enzyme activity at 1 uM using LCGRTGRRNSI as substrate preincubated for 20 mins followed by [gamma-33P]-ATP addition and measured after 120 mins by radiometric Hot-SpotSM Kinase assay relative to control.
Chain of Serine/threonine-protein kinase SBK1 (Homo sapiens) (Q52WX2 whole entry): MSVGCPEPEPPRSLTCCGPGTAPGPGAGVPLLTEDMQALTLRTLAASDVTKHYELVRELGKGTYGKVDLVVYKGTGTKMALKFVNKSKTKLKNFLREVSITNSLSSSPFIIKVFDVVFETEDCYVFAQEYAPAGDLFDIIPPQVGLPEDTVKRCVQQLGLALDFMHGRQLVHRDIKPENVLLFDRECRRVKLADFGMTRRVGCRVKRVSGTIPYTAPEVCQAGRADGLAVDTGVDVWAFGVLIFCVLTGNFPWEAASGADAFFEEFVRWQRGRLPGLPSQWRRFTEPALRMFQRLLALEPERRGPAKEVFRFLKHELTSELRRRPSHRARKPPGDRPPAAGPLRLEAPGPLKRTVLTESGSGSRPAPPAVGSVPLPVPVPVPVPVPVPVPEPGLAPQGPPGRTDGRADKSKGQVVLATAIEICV
Test [3] has as its target T1, Serine/threonine-protein kinase MAK (Homo sapiens) (UniProt P20794).
T1 sequence (whole entry): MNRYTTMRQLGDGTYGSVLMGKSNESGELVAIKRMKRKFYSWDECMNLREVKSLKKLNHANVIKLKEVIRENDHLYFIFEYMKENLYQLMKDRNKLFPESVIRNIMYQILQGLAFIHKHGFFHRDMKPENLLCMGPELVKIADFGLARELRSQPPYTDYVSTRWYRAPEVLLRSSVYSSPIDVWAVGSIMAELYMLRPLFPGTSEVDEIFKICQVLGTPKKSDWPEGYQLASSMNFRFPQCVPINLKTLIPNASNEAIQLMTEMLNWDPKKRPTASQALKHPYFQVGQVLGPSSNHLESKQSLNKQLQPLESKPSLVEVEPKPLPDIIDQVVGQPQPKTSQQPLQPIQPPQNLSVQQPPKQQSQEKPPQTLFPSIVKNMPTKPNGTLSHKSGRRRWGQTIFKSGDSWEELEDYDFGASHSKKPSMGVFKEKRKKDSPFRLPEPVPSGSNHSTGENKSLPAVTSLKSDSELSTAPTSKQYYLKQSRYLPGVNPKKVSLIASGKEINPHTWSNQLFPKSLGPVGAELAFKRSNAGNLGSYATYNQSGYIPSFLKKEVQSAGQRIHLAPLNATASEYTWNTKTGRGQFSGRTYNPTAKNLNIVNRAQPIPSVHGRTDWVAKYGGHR
The test is described as follows: Inhibition of human MAK assessed as enzyme activity at 1 uM using myelin basic protein as substrate preincubated for 20 mins followed by [gamma-33P]-ATP addition and measured after 120 mins by radiometric Hot-SpotSM Kinase assay relative to control.

Test [4] addresses Tyrosine-protein kinase ABL2 (Homo sapiens) (UniProt P42684). The test is described as follows: Inhibition of human ABL2 assessed as enzyme activity at 1 uM using EAIYAAPFAKKK as substrate preincubated for 20 mins followed by [gamma-33P]-ATP addition and measured after 120 mins by radiometric Hot-SpotSM Kinase assay relative to control.
The target of test [5] is T2, cGMP-dependent protein kinase 1 (Homo sapiens) (UniProt Q13976).
T2 sequence (whole entry): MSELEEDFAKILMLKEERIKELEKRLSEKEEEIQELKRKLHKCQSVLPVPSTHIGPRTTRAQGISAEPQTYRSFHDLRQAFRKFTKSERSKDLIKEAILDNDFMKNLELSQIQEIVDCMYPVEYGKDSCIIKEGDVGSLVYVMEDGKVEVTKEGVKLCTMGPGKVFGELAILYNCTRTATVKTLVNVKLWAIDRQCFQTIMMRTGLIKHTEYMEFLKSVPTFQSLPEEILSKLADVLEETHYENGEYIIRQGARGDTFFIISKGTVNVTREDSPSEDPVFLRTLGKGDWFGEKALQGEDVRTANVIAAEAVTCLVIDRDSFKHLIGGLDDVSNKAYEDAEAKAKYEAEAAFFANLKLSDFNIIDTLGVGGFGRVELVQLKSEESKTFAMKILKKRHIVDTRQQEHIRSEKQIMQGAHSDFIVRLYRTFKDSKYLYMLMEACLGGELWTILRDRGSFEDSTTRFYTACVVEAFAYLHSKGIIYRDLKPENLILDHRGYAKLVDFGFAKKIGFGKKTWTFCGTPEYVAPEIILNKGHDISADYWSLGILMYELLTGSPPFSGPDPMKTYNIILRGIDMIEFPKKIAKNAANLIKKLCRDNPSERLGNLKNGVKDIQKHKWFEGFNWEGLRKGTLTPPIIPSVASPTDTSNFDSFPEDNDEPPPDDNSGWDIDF
The test is described as follows: Inhibition of human PKG1a assessed as enzyme activity at 1 uM using LRRASLG as substrate preincubated for 20 mins followed by [gamma-33P]-ATP addition and measured after 120 mins by radiometric Hot-SpotSM Kinase assay relative to control.

In test [6] the target is Tyrosine-protein kinase Fer (Homo sapiens) (UniProt P16591). Description: Inhibition of human FER assessed as enzyme activity at 1 uM using poly[Glu:Tyr] (4:1) as substrate preincubated for 20 mins followed by [gamma-33P]-ATP addition and measured after 120 mins by radiometric Hot-SpotSM Kinase assay relative to control.
Chain of Tyrosine-protein kinase Fer (Homo sapiens) (P16591 whole entry, looked up): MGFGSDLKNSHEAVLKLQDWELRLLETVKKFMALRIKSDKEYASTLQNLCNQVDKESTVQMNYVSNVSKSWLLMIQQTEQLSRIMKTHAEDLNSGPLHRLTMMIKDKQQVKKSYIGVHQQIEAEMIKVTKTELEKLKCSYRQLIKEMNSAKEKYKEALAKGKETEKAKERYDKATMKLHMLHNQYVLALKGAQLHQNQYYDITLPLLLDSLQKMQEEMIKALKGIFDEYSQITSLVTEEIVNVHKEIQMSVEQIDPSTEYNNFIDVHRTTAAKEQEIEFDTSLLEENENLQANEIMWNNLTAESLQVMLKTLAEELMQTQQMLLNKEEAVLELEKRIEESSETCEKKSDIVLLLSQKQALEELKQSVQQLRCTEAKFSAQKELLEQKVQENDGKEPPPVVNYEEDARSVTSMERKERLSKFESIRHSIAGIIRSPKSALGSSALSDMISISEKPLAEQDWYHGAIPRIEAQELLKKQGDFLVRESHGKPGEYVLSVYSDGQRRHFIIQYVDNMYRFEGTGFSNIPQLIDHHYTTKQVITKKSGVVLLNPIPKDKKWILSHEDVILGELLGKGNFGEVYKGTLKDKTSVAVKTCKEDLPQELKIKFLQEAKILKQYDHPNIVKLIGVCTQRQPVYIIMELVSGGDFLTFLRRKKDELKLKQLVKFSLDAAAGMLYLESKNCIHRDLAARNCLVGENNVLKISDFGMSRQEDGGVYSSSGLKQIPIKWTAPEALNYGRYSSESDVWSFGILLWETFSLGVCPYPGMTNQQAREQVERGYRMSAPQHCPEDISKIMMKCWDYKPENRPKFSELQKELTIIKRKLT
Test [7] addresses T3, Mitogen-activated protein kinase kinase kinase kinase 3 (Homo sapiens) (UniProt Q8IVH8).
T3 sequence (whole entry): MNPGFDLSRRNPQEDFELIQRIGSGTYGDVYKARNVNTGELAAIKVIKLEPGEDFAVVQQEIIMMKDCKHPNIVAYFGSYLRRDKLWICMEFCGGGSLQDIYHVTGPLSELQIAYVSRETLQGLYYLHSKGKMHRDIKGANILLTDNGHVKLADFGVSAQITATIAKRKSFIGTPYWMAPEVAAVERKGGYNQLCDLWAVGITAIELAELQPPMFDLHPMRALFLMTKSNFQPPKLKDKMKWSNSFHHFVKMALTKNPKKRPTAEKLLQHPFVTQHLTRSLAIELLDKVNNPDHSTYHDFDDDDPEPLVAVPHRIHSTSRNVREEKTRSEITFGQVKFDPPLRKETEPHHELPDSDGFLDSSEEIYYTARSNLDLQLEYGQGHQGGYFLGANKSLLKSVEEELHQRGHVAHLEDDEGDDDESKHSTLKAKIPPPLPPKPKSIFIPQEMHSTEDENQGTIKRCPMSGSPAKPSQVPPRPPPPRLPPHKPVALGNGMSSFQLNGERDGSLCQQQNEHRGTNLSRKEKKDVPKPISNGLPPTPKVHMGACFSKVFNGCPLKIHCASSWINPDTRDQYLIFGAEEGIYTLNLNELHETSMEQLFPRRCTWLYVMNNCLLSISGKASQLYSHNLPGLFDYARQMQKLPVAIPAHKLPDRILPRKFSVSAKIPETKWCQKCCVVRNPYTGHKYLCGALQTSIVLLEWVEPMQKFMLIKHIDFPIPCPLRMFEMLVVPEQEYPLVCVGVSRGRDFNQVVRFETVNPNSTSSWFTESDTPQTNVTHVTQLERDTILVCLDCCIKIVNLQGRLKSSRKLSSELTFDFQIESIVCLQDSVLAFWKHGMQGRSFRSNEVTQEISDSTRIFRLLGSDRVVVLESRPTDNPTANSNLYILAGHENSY
Description: Inhibition of human GLK/MAP4K3 assessed as enzyme activity at 1 uM using myelin basic protein as substrate preincubated for 20 mins followed by [gamma-33P]-ATP addition and measured after 120 mins by radiometric Hot-SpotSM Kinase assay relative to control.

Chain of Tyrosine-protein kinase ABL2 (Homo sapiens) (P42684 whole entry): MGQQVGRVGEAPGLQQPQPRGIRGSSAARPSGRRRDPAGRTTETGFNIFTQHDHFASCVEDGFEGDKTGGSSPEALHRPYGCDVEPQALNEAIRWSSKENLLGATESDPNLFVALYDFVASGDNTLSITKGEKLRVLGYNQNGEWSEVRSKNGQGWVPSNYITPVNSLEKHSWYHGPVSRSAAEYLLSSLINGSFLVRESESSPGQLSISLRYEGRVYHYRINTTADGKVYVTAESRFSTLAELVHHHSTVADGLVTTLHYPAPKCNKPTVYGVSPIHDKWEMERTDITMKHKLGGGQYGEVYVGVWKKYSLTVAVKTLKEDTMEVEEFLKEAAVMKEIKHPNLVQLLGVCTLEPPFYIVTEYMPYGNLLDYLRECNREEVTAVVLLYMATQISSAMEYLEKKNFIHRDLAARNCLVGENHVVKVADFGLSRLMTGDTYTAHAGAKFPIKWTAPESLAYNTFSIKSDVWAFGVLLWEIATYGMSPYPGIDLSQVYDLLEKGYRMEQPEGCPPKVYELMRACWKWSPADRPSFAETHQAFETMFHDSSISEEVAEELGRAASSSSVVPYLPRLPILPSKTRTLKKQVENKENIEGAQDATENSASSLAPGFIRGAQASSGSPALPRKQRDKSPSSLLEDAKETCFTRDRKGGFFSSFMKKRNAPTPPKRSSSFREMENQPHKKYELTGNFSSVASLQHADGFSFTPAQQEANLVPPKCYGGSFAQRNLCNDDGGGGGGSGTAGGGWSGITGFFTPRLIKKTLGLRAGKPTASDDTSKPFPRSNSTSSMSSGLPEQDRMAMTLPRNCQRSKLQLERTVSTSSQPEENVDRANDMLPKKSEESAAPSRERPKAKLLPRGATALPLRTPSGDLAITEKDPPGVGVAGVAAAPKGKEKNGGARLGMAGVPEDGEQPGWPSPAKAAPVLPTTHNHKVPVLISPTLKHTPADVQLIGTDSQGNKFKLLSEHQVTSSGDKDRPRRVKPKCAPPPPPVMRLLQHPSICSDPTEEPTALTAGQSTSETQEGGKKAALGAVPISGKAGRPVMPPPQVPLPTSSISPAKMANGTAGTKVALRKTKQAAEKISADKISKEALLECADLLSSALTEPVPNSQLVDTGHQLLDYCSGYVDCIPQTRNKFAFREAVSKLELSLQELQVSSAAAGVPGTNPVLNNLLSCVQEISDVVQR

Take `C[C@H](Nc1ncnc2nc[nH]c12)c1cc2cccc(Cl)c2c(=O)n1-c1ccccc1`: the Activity in test [1] is 96.9%; in test [2], 99.5%; in test [3] it was 98.5%; in test [4], 91.7%; in test [5] it was 109%; in test [6], 91.7%. For the same compound, the Activity in test [7] was 98.3%.

For `CC[C@H](Nc1ncnc2[nH]cnc12)c1nc2cccc(F)c2c(=O)n1-c1ccccc1`, the Activity in test [1] came out at 94%; in test [2], 101%; in test [3], 92.5%; in test [4], 89.1%; in test [5], 105%; in test [6], 97.2%. The Activity in test [7] amounted to 95.2%.

Turning to `CC(C)Oc1ccc(-c2nn([C@@H](C)c3oc4ccc(F)cc4c(=O)c3-c3cccc(F)c3)c3ncnc(N)c23)cc1F` [UMBRALISIB], the Activity was 95.3% in test [1]; 98.8% in test [2]; 96.5% in test [3]; 90.6% in test [4]; 105% in test [5]; 94.5% in test [6]. Further, the Activity in test [7] came to 99.3%.
